Assay results published in publication PMC4187893, “Biochemical and Antiparasitic Properties of Inhibitors of the Plasmodium falciparum Calcium-Dependent Protein Kinase PfCDPK1” (Antimicrobial Agents and Chemotherapy, 2014).
Where two headings read alike, the source gives them in different places.

What was measured:
PbCDPK1 = PbCDPK1 (Plasmodium berghei, UniProt A0A509AHB6); test: Rh-ParM ADP sensor IC50 assay, PbCDPK1; settings: for IC50: read-out: IC50 PbCDPK1, Rh-ParM, absence of MTIP, mean (SD)
PvCDPK1 = PvCDPK1 (Plasmodium vivax, UniProt A5KBU9); test: Rh-ParM ADP sensor IC50 assay, PvCDPK1; settings: for IC50: read-out: IC50 PvCDPK1, Rh-ParM, absence of MTIP, mean (SD)
PfCDPK1 [1] = target: T1, PfCDPK1 (Plasmodium falciparum, UniProt P62344); settings: absence of MTIP; for IC50: mean (SD), n = 2
[2] = set-up: method as in PMID 24689770; settings: cited from earlier work
PfCDPK1 [3] = target: T1, PfCDPK1; test: Radiometric assay, incorporation of 33P into MTIP
PfCDPK1 [4] = target: T1, PfCDPK1; test: Kinase-Glo Plus ATP depletion assay; settings: read-out: IC50 ATP depletion, ATP and MTIP at their respective Km values
P. falciparum 3D7 = test: FACS assay for parasite growth; settings: Plasmodium falciparum, 3D7, 48 h, read-out: mean EC50, positive controls in parasite growth assay
PfCDPK1 [5] = target: T1, PfCDPK1; test: Thermal shift assay; type: binding; set-up: 50 nM full-length recombinant PfCDPK1 and 8 μM MTIP in assay buffer 1; GST (from vector pGEX6P1) (N, cleaved yes); made in house; host or cells: Escherichia coli BL21 Gold; settings: 10 μM compound, relative to DMSO controls
Method: Purified recombinant PfCDPK1 was diluted to 1 μM in 10 mM HEPES buffer (pH 7.5) containing 150 mM NaCl, 1 mM Ca^2+, and 1/1,000 SYPRO orange dye (Invitrogen). Test compounds were prediluted to 400 μM in 40% (vol/vol) DMSO in water, and 1 μl of diluted compound was added to 39 μl of enzyme/dye mix in white 96-well quantitative PCR plates (Thermo Scientific) to give a final compound concentration of 10 μM. Reference thermal melting temperatures (Tms) were obtained in parallel by the addition of 1 μl of 40% (vol/vol) DMSO to 39 μl of diluted PfCDPK1. The plates were sealed with transparent adhesive covers (Bio-Rad) and subjected to a temperature gradient from […] at a rate of 1 K/min using a quantitative PCR machine (MX3005P; Stratagene). Fluorescence data were acquired at 1-min intervals using the 6-carboxyfluorescein (FAM)/5-carboxy-X-rhodamine (ROX) filter set (λex = 492 nm; λem = 610 nm), and the raw data were exported to Excel (Microsoft) for analysis. Data were processed to identify the fluorescence maxima and minima, and the midpoints of melting curves were determined by fitting to the Boltzmann equation using XL-fit software (IDBS). Results were expressed as ΔTm values relative to DMSO controls where ΔTm = Tm in the presence of inhibitor − Tm of the DMSO controls.

[6] = read-out: IC50 PfCDPK1, Rh-ParM, ATP at Km
[7] = read-out: IC50 With 30 μM ATP, 30 μM ATP, Rh-ParM ADP detection
[8] = read-out: IC50 With 1 mM ATP, 1 mM ATP, Rh-ParM ADP detection

T1 sequence (P62344 whole entry): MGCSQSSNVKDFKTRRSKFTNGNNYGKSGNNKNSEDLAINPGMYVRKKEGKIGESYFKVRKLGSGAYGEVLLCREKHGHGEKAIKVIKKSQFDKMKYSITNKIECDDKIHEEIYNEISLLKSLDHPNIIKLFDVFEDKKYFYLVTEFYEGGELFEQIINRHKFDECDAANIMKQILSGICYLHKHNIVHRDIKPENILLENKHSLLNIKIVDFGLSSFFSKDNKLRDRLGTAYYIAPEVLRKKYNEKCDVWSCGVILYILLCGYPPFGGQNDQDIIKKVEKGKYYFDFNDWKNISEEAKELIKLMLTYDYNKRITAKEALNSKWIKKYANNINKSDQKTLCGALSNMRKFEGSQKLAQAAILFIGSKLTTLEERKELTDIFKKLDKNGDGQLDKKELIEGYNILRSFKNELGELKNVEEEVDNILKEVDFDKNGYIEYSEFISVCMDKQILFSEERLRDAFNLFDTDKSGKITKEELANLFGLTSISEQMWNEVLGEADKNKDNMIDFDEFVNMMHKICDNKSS
Chain of PvCDPK1 (A5KBU9 entry or part of it): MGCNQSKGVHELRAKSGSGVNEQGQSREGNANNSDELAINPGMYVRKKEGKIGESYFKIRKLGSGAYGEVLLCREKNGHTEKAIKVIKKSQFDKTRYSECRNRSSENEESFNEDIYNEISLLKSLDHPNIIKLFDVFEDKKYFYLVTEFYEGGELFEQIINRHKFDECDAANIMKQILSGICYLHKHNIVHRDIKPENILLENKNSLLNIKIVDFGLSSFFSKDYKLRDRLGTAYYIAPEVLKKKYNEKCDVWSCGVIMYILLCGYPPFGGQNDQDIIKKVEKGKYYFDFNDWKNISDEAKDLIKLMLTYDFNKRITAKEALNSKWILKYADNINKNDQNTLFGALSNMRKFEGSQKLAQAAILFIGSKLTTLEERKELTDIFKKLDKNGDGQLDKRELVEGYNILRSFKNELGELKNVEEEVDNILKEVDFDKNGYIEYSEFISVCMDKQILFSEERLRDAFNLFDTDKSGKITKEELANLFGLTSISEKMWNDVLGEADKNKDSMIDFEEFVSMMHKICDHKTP
Chain of PbCDPK1 (A0A509AHB6 whole entry): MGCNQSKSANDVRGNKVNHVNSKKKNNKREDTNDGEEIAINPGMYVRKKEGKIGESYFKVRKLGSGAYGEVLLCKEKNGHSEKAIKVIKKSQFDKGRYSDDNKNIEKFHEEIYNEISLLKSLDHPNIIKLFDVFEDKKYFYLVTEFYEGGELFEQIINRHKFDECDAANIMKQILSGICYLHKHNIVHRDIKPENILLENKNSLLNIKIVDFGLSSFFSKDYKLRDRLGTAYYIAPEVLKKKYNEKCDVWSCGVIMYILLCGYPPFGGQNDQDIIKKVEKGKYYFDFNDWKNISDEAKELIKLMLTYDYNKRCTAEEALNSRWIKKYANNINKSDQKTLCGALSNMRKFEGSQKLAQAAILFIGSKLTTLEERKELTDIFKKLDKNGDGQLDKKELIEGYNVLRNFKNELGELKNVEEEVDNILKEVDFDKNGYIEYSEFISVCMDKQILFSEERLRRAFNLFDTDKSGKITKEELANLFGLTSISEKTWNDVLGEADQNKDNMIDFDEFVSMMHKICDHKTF

SMILES	IC50 ratio PbCDPK1/PfCDPK1 (PbCDPK1)	IC50 (PbCDPK1; ATP at Km, n = 2) [µM]	IC50 ratio PvCDPK1/PfCDPK1 (PvCDPK1)	IC50 (PvCDPK1; ATP at Km, n = 2) [µM]	IC50 (PfCDPK1 [1]; [6]) [µM]	further results
CN(C)C1CCN(c2ccc3ncc(-c4cnc(Nc5ncccc5F)nc4)n3n2)C1 (stereo not shown) [Compound 45]	3.0	0.058	1.0	0.019	0.019	
CC(C)CNc1ncc(-c2cnc3ccc(NC4CCC(N)CC4)nn23)cn1 (stereo not shown) [Compound 29]	4.6	0.392	0.9	0.08	0.086	
COc1ccc(-n2ccnc(SCC(=O)Nc3ccc(C)cc3C)c2=O)cc1 [Compound 24]						IC50 ratio (IC50 with 1 mM ATP/IC50 with 30 μM ATP) (PfCDPK1 [1]; Rh-ParM): >3; IC50 (PfCDPK1 [1]; [7]): 31.2 µM; IC50 (PfCDPK1 [1]; [8]): > 100 µM
Fc1cccnc1Nc1ccc(-c2cnc3ccc(NC4CCC(N5CCCC5)CC4)nn23)cn1 (stereo not shown) [Compound 4]						IC50 (PbCDPK1; n = 3): 0.043 µM; IC50 (PvCDPK1; n = 3): < 0.01 µM; mlogD [2]: 2.8
CN(C(=O)c1cc(COc2ccc(-n3cncn3)cc2)on1)C1CCCCC1 [Compound 19]						IC50 ratio (IC50 with 1 mM ATP/IC50 with 30 μM ATP) (PfCDPK1 [1]; Rh-ParM): 336; IC50 (PfCDPK1 [1]; [7]): 0.072 µM; IC50 (PfCDPK1 [1]; [8]): 24.2 µM
O=C(NCc1cccc(N2CCCC2)c1)c1ccc(-n2cnc3cccnc32)cc1 [Compound 17]						IC50 ratio (IC50 with 1 mM ATP/IC50 with 30 μM ATP) (PfCDPK1 [1]; Rh-ParM): 27; IC50 (PfCDPK1 [1]; [7]): 0.051 µM; IC50 (PfCDPK1 [1]; [8]): 1.38 µM
CC(C)CCNc1ccc(-c2cnn3ccc(NC4CCN(C)C4)nc23)cn1 (stereo not shown) [Compound 41]	2.8	0.206	0.9	0.068	0.073	
CC(C)CCNc1cc(-c2cnc3ccc(NC4CCN(C)CC4)nn23)ccn1 [Compound 27]	3.5	0.479	0.5	0.068	0.138	
Fc1cccnc1Nc1ncc(-c2cnc3ccc(NC4CCC(N5CCNCC5)CC4)nn23)cn1 (stereo not shown) [Compound 46]	2.8	0.038	0.8	0.011	0.013	
O=C(NCc1ccc(N2CCCC2)cc1)c1ccc(-n2cnc3cccnc32)cc1 [Compound 16]						IC50 ratio (IC50 with 1 mM ATP/IC50 with 30 μM ATP) (PfCDPK1 [1]; Rh-ParM): 39; IC50 (PfCDPK1 [1]; [7]): 0.077 µM; IC50 (PfCDPK1 [1]; [8]): 2.97 µM
CC(=O)Nc1cccc(-c2cnc3ccc(NCCc4ccccn4)nn23)c1 [Compound 10]						IC50 ratio (ATP depletion/radiometric assay) (PfCDPK1 [3]; Kinase-Glo Plus IC50 / radiometric IC50): 2.7; IC50 (PfCDPK1 [3]; read-out: IC50 Radiometric assay, ATP and MTIP at their respective Km values): 0.024 µM; IC50 (PfCDPK1 [4]): 0.065 µM; IC50 ratio (IC50 with 1 mM ATP/IC50 with 30 μM ATP) (PfCDPK1 [1]; Rh-ParM): 27; IC50 (PfCDPK1 [1]; [7]): 0.064 µM; IC50 (PfCDPK1 [1]; [8]): 1.7 µM
CCc1nc(N)nc(N)c1-c1ccc(Cl)cc1 [Pyrimethamine, reference compound]						EC50 (P. falciparum 3D7): 0.008 µM
CC(C)CCNc1ncc(-c2cnn3ccc(NC4CCN(C)C4)nc23)cn1 (stereo not shown) [Compound 42]	3.2	0.35	0.9	0.099	0.109	
CN1CCC(Nc2ccc3ncc(-c4ccc(Nc5ncc(Cl)cc5F)cc4)n3n2)CC1 [Compound 6]						IC50 (PbCDPK1; n = 3): < 0.01 µM; IC50 (PvCDPK1; n = 3): < 0.01 µM; ΔTm PfCDPK1 (PfCDPK1 [5]): 22 K; mlogD [2]: 3.7
Fc1cccnc1Nc1ccc(-c2cnc3ccc(NC4CCC(N5CCCC5)CC4)nn23)cc1 (stereo not shown) [Compound 5]						mlogD [2]: 3.3
CN1CCC(Nc2ccn3ncc(-c4cccc(NC(=O)c5ccccc5)c4)c3n2)CC1 [Compound 28]	3.8	0.152	0.6	0.024	0.04	
c1nc(NCC2CC2)ncc1-c1cnc2ccc(NC3CCNCC3)nn12 [Compound 40]	4.8	0.249	0.9	0.048	0.052	
